Measurements from US20250263415A1, “TERTIARY AMIDE DERIVATIVES SUBSTITUTED WITH 4-MEMBERED RING STRUCTURE” (Sumitomo Pharma Co., Ltd., priority 2024, published 2025).

Key:
recombinant p300 = recombinant p300 (Homo sapiens (Human), UniProt Q09472); assay: HAT activity inhibition experiment (SensoLyte HAT(p300) Assay Kit); assay type: biochemical
Experimental: The HAT activity inhibitory ability of HAT inhibitors was evaluated using SensoLyte HAT(p300) Assay Kit (ANASPEC, AS-72172). Specifically, 7.5 μL of the compound of Examples […] diluted with assay buffer was added to 7.5 μL of recombinant p300 solution diluted 10 times with assay buffer, and the mixture was incubated at room temperature for 10 minutes. 7.5 μL of acetyl CoA solution diluted 10 times with assay buffer and 15 μL of histone H3 peptide diluted 10 times with assay buffer were added thereto, and the mixture was incubated at 37° C. for 30 minutes. 37.5 μL of Stop Solution was added to stop the reaction. 75 μL of p300 Developer solution diluted 50 times with assay buffer was added, and the mixture was incubated at room temperature for 30 minutes under light-shielded conditions. The fluorescence at 513 nm when irradiated with 389 nm excitation light was measured using a multiplate reader.

G-401 cells = assay: Cell proliferation inhibition experiment using G-401 cells; assay type: cell-based
Experimental: G-401 cells (derived from malignant rhabdoid tumor) were obtained from the American Type Culture Collection (ATCC). G-401 cells were cultured in McCoy's 5A medium containing 10% fetal bovine serum and 1% penicillin/streptomycin under conditions of 37° C. and 5% CO2.
500 cells per well were seeded in a 384-well plate. One day after seeding, Examples 1 to 35 were added so that the final concentration of DMSO was 0.1%, and the cells were cultured for 3 days. After the culture was completed, the cell viability was measured using CellTiter-Glo Luminescent Cell Viability Assay (Promega, G7570).

Solubility test = assay type: physicochemical; settings: pH 2.0 and pH 3.0 buffers
Experimental: The solubility was measured for Examples 7, 10, 20, 23, 24, and 30 to 34, Comparative Example 1, and Comparative Example 2. The test compound was added to 10 mmol/L glycine buffer (pH 2.0) and 10 mmol/L citrate buffer (pH 3.0), and the mixture was stored in a thermostatic chamber at 5° C. After standing overnight, the mixture was filtered through a membrane filter, and the concentration of the filtrate was measured by HPLC.
The HPLC measurement conditions are as follows.
HPLC conditions • Column: Acquity UPLC BEH C18, 1.7 μm, 50×2.1 mm • Column temperature: 40° C. • Mobile phase: A: 0.1% trifluoroacetic acid-containing water • B: acetonitrile • A/B (min): 95/5 (0)→0/100 (3.5)→0/100 (4)→95/5 (4.01)→95/5 (5) • Flow rate: 0.8 mL/min • Detection: UV visible detector, measurement wavelength 254 nm • Injection volume: 5 μL or • Column: Acquity UPLC BEH C18, 1.7 μm, 50×2.1 mm • Column temperature: 40° C. • Mobile phase: A: 0.1% trifluoroacetic acid-containing water • B: acetonitrile • A/B (min): • 80/20 (0)→40/60 (3.0)→0/100 (3.5)→0/100 (4)→80/20 (4.01)→80/20 (5) • Flow rate: 0.8 mL/min • Detection: UV visible detector, measurement wavelength 254 nm • Injection volume: 2 μL or • Column: Acquity UPLC BEH C18, 1.7 μm, 50×2.1 mm • Column temperature: 40° C. • Mobile phase: A: 0.1% trifluoroacetic acid-containing water • B: acetonitrile • A/B (min): • 80/20 (0)→40/60 (3.0)→0/100 (3.5)→0/100 (4)→100/0 (4.01)→100/0 (5) • Flow rate: 0.8 mL/min • Detection: UV visible detector, measurement wavelength 254 nm • Injection volume: 3 μL

[1] = Pharmacokinetic study in mice; assay type: in vivo
Experimental: The test compound was administered to 7-week-old female BALE/c (BALB/cAnN CrlCrlj) mice intravenously (dosage: 1 mg/kg) in a 50% PEG solution (0.01 mol/L HCl) or orally (dosage: 10 mg/kg) in a 0.5% methylcellulose aqueous solution, and blood was collected at the following times: • Intravenous administration: 5 min, 15 min, 30 min, 1 hr, 2 hr, 4 hr, 6 hr, and 24 hr after administration • Oral administration: 15 min, 30 min, 1 hr, 2 hr, 4 hr, 6 hr, and 24 hr after administration
The collected blood was centrifuged at 3000 rpm×10 min using a refrigerated centrifuge set at 4° C., and the obtained plasma was measured by LC-MS. A calibration curve was prepared from the value (peak ratio) obtained by dividing the peak area of the test substance by the peak area of the internal standard substance in MS and the concentration of the plasma calibration curve sample. The concentration in the sample was calculated from the peak ratio and the calibration curve of each sample.

G-401 xenograft [2] = assay: Drug efficacy evaluation by oral administration using G-401 xenograft model mice; assay type: in vivo
Experimental: (§1) G-401 cells (ATCC) were intradermally transplanted into 4-7-week-old BALB/cAnNCrj-nu/nu mice (CAnN.Cg-Foxnl/CrlCrlj, Jackson Laboratory Japan) at 5×10^5 cells/mouse. After confirming the engraftment of G-401 cells 10-40 days after transplantation, the test compound suspended in a solvent such as 0.5% methylcellulose solution was orally administered twice a day at a dose of 1-100 mg/kg. The tumor volume was measured over time from the start of administration, and the effect of tumor volume reduction by administration of the test compound was evaluated. The tumor volume can be calculated from the following equation using the minor axis and major axis of the tumor measured with an electronic caliper (Mitutoyo).
A control administration group administered with only a solvent such as 0.5% methylcellulose solution and a test compound administration group were compared, and the antitumor effect was evaluated by calculating T/C from the following equation.

G-401 xenograft [3] = assay: Drug efficacy evaluation by intravenous administration using G-401 xenograft mice model; assay type: in vivo; settings: G-401 xenograft model
Experimental: as §1, with “as 10 mmol/L glycine buffer” for “as 0.5% methylcellulose”, “solution (pH 2.0)” for “solution”, “was” for “was orally”, “administered via the tail vein at least once” for “administered twice”, “a week” for “a day”, “of 0.015-20” for “of 1-100”
A control administration group administered with only a solvent such as 10 mmol/L glycine buffer solution (pH 2.0) and a test compound administration group were compared, and the antitumor effect was evaluated by calculating T/C from the following equation.

hDAT = hDAT (Homo sapiens (Human), UniProt Q01959); assay: Dopamine receptor inhibitory activity evaluation (binding assay, CHO-S/hDAT membranes); settings: off-target
hDAT, sequence (Q01959 whole entry): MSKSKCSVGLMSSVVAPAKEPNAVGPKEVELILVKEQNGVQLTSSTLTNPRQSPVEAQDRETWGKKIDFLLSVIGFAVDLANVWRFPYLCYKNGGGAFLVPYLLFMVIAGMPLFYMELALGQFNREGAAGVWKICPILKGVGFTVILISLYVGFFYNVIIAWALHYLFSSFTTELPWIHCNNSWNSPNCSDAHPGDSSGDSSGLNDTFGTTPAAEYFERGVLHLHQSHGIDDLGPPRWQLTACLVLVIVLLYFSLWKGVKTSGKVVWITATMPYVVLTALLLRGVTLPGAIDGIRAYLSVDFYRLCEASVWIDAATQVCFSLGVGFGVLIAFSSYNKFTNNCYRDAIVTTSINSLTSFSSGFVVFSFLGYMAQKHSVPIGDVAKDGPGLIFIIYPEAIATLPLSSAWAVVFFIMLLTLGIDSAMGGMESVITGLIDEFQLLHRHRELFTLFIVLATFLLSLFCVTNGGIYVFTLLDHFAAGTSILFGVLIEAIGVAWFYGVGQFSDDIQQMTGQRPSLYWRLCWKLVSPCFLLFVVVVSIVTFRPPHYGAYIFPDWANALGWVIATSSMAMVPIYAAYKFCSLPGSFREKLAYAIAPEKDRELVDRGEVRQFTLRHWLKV
Experimental: The binding evaluation assay was outsourced to Eurofins. Specifically, CHO—S/hDAT cells were homogenized in an incubation buffer consisting of 50 mmol/L Tris-HCl, pH 7.4, 100 mmol/L NaCl, 1 μmol/L Leupeptin, and 10 μmol/L PMSF. The membrane pellet obtained by centrifugation was resuspended in the incubation buffer to prepare a membrane preparation. The test compound (1-10 μmol/L DMSO solution), the membrane preparation, and 0.15 nmol/L […] were mixed and incubated at 4° C. for 180 minutes. The cell membrane-[^125I]RTI-55 complex was bound to a GF/B filter mat by vacuum filtration and washed with 50 mmol/L Tris-HCl, pH 7.4. The effect on the receptor was assessed by measuring radioactivity using a scintillation counter.

hSERT = hSERT (Homo sapiens (Human), UniProt P31645); assay: Serotonin receptor inhibitory activity evaluation (binding assay, HEK293/hSERT membranes); settings: off-target
hSERT, sequence (P31645 whole entry): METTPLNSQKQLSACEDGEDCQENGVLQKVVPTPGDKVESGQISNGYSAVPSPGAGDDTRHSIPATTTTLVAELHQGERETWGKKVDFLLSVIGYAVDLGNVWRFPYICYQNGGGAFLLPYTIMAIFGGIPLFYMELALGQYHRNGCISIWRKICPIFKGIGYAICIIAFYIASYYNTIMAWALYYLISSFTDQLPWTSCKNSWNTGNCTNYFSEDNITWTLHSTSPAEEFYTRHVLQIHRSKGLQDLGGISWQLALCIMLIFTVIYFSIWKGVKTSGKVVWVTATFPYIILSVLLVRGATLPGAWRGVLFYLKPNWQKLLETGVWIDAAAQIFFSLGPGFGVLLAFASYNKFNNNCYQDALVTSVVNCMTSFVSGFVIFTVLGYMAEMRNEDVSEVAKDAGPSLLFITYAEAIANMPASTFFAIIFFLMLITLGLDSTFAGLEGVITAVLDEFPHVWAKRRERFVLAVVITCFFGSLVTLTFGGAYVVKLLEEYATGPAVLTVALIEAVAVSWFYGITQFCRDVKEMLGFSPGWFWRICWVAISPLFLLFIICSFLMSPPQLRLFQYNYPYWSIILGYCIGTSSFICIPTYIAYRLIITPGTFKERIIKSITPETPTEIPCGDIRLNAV
Experimental: The binding evaluation assay was outsourced to Eurofins. Specifically, HEK293/hSERT cells were homogenized in a buffer consisting of 100 mmol/L NaCl, 1 μmol/L Leupeptin, 10 μmol/L PMSF, and 50 mmol/L Tris-HCl (pH7.4). The membrane pellet obtained by centrifugation was resuspended in an incubation buffer consisting of 50 mmol/L Tris-HCl (pH 7.4), 120 mmol/L NaCl, and 5 mmol/L KCl to prepare a membrane preparation. The test compound (1-10 μmol/L DMSO solution), the membrane preparation, and 0.4 nmol/L [^3H]Paroxetin were mixed and incubated at 25° C. for 60 minutes. The cell membrane-[^3H]Paroxetin complex was bound to a GF/B filter mat by vacuum filtration and washed with 50 mmol/L Tris-HCl (pH 7.4). The effect on the receptor was assessed by measuring radioactivity using a scintillation counter.

recombinant p300, sequence (Q09472 whole entry): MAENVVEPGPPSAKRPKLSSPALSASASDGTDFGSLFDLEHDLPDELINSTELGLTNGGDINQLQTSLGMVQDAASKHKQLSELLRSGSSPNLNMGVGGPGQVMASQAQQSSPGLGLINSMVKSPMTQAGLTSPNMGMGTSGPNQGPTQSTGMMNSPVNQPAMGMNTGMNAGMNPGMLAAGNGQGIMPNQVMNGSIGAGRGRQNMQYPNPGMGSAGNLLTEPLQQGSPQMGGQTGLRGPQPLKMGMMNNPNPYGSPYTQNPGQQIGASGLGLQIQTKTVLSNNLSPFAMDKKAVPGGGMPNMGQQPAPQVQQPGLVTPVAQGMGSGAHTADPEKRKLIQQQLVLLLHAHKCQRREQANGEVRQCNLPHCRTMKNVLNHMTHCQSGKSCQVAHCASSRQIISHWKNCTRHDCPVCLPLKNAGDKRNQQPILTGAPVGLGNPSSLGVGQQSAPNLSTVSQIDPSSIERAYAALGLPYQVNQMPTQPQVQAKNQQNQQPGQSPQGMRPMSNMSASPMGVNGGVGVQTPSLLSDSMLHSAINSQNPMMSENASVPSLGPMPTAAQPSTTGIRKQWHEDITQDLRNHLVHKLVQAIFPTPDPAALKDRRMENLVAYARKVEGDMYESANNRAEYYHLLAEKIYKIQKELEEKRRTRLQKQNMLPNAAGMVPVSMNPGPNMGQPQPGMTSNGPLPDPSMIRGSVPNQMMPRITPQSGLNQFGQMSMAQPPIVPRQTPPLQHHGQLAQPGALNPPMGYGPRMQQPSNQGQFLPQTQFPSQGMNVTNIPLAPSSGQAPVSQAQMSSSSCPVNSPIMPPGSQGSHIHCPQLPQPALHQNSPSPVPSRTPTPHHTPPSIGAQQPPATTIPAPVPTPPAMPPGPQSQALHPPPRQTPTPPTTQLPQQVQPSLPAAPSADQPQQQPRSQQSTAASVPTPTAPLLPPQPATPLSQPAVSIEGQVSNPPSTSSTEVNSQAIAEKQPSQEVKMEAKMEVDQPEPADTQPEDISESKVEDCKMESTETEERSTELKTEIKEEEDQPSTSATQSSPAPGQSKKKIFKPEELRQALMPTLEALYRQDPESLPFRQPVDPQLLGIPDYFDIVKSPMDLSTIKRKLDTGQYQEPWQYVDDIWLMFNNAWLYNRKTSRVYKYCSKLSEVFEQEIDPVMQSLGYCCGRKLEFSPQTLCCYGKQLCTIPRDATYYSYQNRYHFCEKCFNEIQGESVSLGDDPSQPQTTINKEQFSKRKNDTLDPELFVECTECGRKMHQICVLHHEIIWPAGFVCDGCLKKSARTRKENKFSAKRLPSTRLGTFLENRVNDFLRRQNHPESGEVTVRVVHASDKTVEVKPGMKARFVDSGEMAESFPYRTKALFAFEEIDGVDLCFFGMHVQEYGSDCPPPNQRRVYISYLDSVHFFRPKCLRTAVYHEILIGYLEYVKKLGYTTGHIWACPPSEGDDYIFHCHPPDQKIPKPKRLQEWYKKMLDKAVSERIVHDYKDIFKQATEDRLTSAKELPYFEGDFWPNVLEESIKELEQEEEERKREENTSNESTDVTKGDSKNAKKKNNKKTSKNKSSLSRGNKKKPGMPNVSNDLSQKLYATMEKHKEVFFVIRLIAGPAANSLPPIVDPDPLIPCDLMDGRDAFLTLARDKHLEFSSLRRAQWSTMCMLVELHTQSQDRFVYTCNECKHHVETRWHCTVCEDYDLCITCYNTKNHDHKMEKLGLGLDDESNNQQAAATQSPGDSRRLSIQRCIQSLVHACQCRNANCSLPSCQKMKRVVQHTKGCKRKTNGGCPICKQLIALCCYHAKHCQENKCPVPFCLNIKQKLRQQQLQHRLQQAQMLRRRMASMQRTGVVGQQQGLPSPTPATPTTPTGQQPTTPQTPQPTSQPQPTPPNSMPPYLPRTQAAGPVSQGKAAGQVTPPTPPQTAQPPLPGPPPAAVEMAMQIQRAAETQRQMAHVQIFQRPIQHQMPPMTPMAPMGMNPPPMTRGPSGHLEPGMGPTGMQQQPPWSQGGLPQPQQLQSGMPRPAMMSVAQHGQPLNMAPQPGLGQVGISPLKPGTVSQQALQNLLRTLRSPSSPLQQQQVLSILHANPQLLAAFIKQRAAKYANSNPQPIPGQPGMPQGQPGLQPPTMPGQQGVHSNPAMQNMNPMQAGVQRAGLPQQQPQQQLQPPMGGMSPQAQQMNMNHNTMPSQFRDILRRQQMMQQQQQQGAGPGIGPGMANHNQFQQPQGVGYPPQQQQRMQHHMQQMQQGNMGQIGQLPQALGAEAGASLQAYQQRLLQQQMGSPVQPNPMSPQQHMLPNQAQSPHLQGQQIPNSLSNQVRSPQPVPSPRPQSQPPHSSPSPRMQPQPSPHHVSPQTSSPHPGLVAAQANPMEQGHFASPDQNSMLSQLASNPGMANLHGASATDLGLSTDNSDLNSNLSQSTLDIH

HAT activity inhibition (in words) (recombinant p300): strong inhibition of HAT activity
Solubility (in words) (Solubility test): high solubility
Pharmacokinetics (in words) [1]: excellent pharmacokinetics
Inhibitory effect on dopamine receptors (in words) (hDAT): did not show strong inhibitory activity
Inhibitory effect on serotonin receptors (in words) (hSERT): did not show strong inhibitory activity
Structure (SMILES): O=C1N[C@]2(C[C@@H](F)c3cc(-c4cnn(C5CN(C6COC6)C5)c4)ccc32)C(=O)N1CC(=O)N(Cc1ccc(F)cn1)C1(C(F)(F)F)COC1 [Example 7, 2-[(1′S,3′R)-3′-fluoro-5′-{1-[1-(oxetan-3-yl)azetidin-3-yl]-1H-pyrazol-4-yl}-2,5-dioxo-2′,3′-dihydrospiro[imidazolidine-4,1′-inden]-1-yl]-N-[(5-fluoropyridin-2-yl)methyl]-N-[3-(trifluoromethyl)oxetan-3-yl]acetamide]
Cell proliferation inhibitory effect on G-401 cells (in words) (G-401 cells): strong cell proliferation inhibitory effect
Antitumor effect, oral administration (in words) (G-401 xenograft [2]): strong antitumor effects
Antitumor effect, intravenous administration (in words) (G-401 xenograft [3]): strong antitumor effects
